The test addresses Cif (CFTR inhibitory factor) (Pseudomonas aeruginosa, UniProt A0A0H2ZD27). The test is described as follows: epoxide hydrolase inhibition assay. It is filed as biochemical.

Cif (CFTR inhibitory factor), sequence (A0A0H2ZD27 25-319 limits assumed): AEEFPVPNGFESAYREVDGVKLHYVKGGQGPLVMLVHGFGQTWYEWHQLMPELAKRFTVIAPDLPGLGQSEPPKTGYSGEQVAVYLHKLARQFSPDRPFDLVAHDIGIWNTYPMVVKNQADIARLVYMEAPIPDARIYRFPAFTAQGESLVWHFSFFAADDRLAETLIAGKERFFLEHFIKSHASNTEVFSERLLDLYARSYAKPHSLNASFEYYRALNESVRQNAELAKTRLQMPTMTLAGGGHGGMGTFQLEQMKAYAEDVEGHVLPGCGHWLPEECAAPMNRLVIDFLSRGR

`N[C@@H](Cc1cc(I)c(Oc2cc(I)c(O)c(I)c2)c(I)c1)C(=O)O` [compound 9, 9]: the IC50 – broadly, the concentration at which inhibition is half-maximal – is > 100 µM.
